From publication PMC11868595, “Safety, pharmacokinetics and efficacy of HA121-28 in patients with advanced solid tumors and RET fusion-positive non-small-cell lung cancer: a multicenter, open-label, single-arm phase 1/2 trial” (Signal Transduction and Targeted Therapy, 2025)

System: patients with RET fusion-positive NSCLC
Experiment: Phase 2 trial: adverse events (CTCAE)
Format: in vivo, human
From the text: The phase 2 trial was still ongoing. It was a single-arm, multicenter, open-label, nonrandomized study to assess the efficacy and safety of HA121-28 in RET-fusion-positive NSCLC.
Patients aged 18–75 years (inclusive) who had unresectable locally advanced or metastatic NSCLC through histologically or cytologically examination were enrolled. Patients were also required to have documented RET fusions centrally examined by next-generation sequencing in certified laboratories but without other oncogenic alterations. Had progression on at least one previous line of standard treatment but have no previous use of other anti-RET inhibitors. The complete lists of inclusion and exclusion criteria of phase 1 and phase 2 are provided in both protocols (in Supplement).
In phase 1 trial, during the dose-escalation part, patients first administered HA121-28 in a single ascending dose under the fasted state, then followed up for seven days. Then, patients received ascending doses of HA121-28 (q.d.) on a 21-day on and 7-day off treatment scheme for a 28-day cycle. For patients deemed beneficial from the treatment by investigators, treatment could remain until disease progression, or they discontinued from the study. In the dose-expansion part of phase 1, as well as phase 2, patients received HA121-28 (q.d.) at the selected doses on a 21-day on and 7-day off treatment scheme until disease progression, or they discontinued from the study.
Treatment-emergent adverse events (TEAEs) were documented during the entire study period. The predefined adverse event of special interest (AESI) was ≥ grade 3 prolonged QT interval. Tumor imaging was performed using contrast-enhanced computed tomography or magnetic resonance imaging at screening, Day 28 of the first cycle, then approximately every eight weeks till the end of the study for phase 1; in phase 2, imaging was scheduled at screening, and every eight weeks during the first 40 weeks, followed by every 12 weeks for the rest of the study period. RECIST 1.1 was used by the independent review committee or investigators for assessment of tumor response. After the original assessment, a repeated assessment was required around four weeks later to confirm a complete or partial response.
The primary endpoint of phase 2 was the independent review committee evaluated ORR using RECIST 1.1. The secondary endpoints included investigators assessed ORR; DCR, PFS, and DOR by the independent review committee and investigators; overall survival and TEAEs. Each TEAE was graded according to CTCAE version 5.0 and coded by MedDRA (version 24.0). The phase 2 trial is ongoing; not all endpoints are reported in this paper.

[1] = Phase 2 study, patient 3 with Grade 3 QTc prolongation
[2] = Phase 2 study, patient 4 with Grade 3 QTc prolongation
[3] = Phase 2 study, patient 5 with Grade 3 QTc prolongation
[4] = Phase 2 study, patient 7 with Grade 3 QTc prolongation
[5] = Phase 2 study, patient 8 with Grade 3 QTc prolongation

COc1cc2c(Nc3ccc(Br)cc3F)ncnc2cc1OCCCCN(C)C.Cl.Cl [HA121-28, N-(4-bromo-2-fluorophenyl)-7-(4-(dimethylamino)butoxy)-6-methoxy quinazolin-4-amine dihydrochloride]
Serious TEAE: Pneumonia (Phase 2, 450 mg (N=48)): 1 (2.1) No. (%) | Serious TEAE: Pneumonitis (Phase 2, 450 mg (N=48)): 1 (2.1) No. (%) | Serious TEAE: Prolonged QT interval (Phase 2, 450 mg (N=48)): 0 No. (%) | Serious TEAE: Pulmonary embolism (Phase 2, 450 mg (N=48)): 1 (2.1) No. (%) | Serious TEAE: Pyrexia (Phase 2, 450 mg (N=48)): 1 (2.1) No. (%) | Serious TEAE: Rash (Phase 2, 450 mg (N=48)): 2 (4.2) No. (%) | Serious TEAE: Rectal hemorrhage (Phase 2, 450 mg (N=48)): 0 No. (%) | Serious TEAE: Respiratory failure (Phase 2, 450 mg (N=48)): 1 (2.1) No. (%) | Serious TEAE: Seizure (Phase 2, 450 mg (N=48)): 0 No. (%) | Serious TEAE: Septic shock (Phase 2, 450 mg (N=48)): 1 (2.1) No. (%) | Serious TEAE: Sudden cardiac arrest (Phase 2, 450 mg (N=48)): 0 No. (%) | Serious TEAE: Sudden death (Phase 2, 450 mg (N=48)): 0 No. (%) | Serious TEAE: Upper respiratory tract infection (Phase 2, 450 mg (N=48)): 0 No. (%) | Serious TEAE: Ventricular tachycardia (Phase 2, 450 mg (N=48)): 0 No. (%) | Serious TEAE: Vomiting (Phase 2, 450 mg (N=48)): 0 No. (%) | Serious TEAE: Weight loss (Phase 2, 450 mg (N=48)): 0 No. (%) | Serious TRAE: ALT increased (Phase 2, 450 mg (N=48)): 1 (2.1) No. (%) | Serious TRAE: AST increased (Phase 2, 450 mg (N=48)): 1 (2.1) No. (%) | Serious TRAE: Abdominal Pain (Phase 2, 450 mg (N=48)): 1 (2.1) No. (%) | Serious TRAE: Abdominal distension (Phase 2, 450 mg (N=48)): 0 No. (%) | Serious TRAE: Acute cholecystitis (Phase 2, 450 mg (N=48)): 0 No. (%) | Serious TRAE: Acute pancreatitis (Phase 2, 450 mg (N=48)): 0 No. (%) | Serious TRAE: Anal abscess (Phase 2, 450 mg (N=48)): 0 No. (%) | Serious TRAE: Any (Phase 2, 450 mg (N=48)): 9 (18.8) No. (%) | Serious TRAE: Aortic intramural hematoma (Phase 2, 450 mg (N=48)): 0 No. (%) | Serious TRAE: Arrhythmia (Phase 2, 450 mg (N=48)): 0 No. (%) | Serious TRAE: Blood bilirubin increased (Phase 2, 450 mg (N=48)): 0 No. (%) | Serious TRAE: Blood creatinine increased (Phase 2, 450 mg (N=48)): 0 No. (%) | Serious TRAE: COVID-19 (Phase 2, 450 mg (N=48)): 0 No. (%) | Serious TRAE: Cardiac tamponade (Phase 2, 450 mg (N=48)): 0 No. (%) | Serious TRAE: Coronary artery atherosclerosis (Phase 2, 450 mg (N=48)): 0 No. (%) | Serious TRAE: Death (Phase 2, 450 mg (N=48)): 0 No. (%) | Serious TRAE: Dermatitis allergic (Phase 2, 450 mg (N=48)): 1 (2.1) No. (%) | Serious TRAE: Diarrhea (Phase 2, 450 mg (N=48)): 1 (2.1) No. (%) | Serious TRAE: Drug eruption (Phase 2, 450 mg (N=48)): 0 No. (%) | Serious TRAE: Dyspnea (Phase 2, 450 mg (N=48)): 0 No. (%) | Serious TRAE: Embolism (Phase 2, 450 mg (N=48)): 0 No. (%) | Serious TRAE: Erythema multiforme (Phase 2, 450 mg (N=48)): 1 (2.1) No. (%) | Serious TRAE: Headache (Phase 2, 450 mg (N=48)): 0 No. (%) | Serious TRAE: Hemoptysis (Phase 2, 450 mg (N=48)): 0 No. (%) | Serious TRAE: Hydronephrosis (Phase 2, 450 mg (N=48)): 0 No. (%) | Serious TRAE: Hypertension (Phase 2, 450 mg (N=48)): 2 (4.2) No. (%) | Serious TRAE: Hypoalbuminemia (Phase 2, 450 mg (N=48)): 0 No. (%) | Serious TRAE: Intestinal obstruction (Phase 2, 450 mg (N=48)): 0 No. (%) | Serious TRAE: Intra-abdominal fluid collection (Phase 2, 450 mg (N=48)): 0 No. (%) | Serious TRAE: Intracranial tumor hemorrhage (Phase 2, 450 mg (N=48)): 0 No. (%) | Serious TRAE: Liver injury (Phase 2, 450 mg (N=48)): 0 No. (%) | Serious TRAE: Lung adenocarcinoma (Phase 2, 450 mg (N=48)): 0 No. (%) | Serious TRAE: Malignant neoplasm progression (Phase 2, 450 mg (N=48)): 0 No. (%) | Serious TRAE: Multiple organ dysfunction syndrome (Phase 2, 450 mg (N=48)): 0 No. (%) | Serious TRAE: Nausea (Phase 2, 450 mg (N=48)): 0 No. (%) | Serious TRAE: Nephrolithiasis (Phase 2, 450 mg (N=48)): 0 No. (%) | Serious TRAE: Platelet counts decreased (Phase 2, 450 mg (N=48)): 0 No. (%) | Serious TRAE: Pleural effusion (Phase 2, 450 mg (N=48)): 0 No. (%) | Serious TRAE: Pneumonia (Phase 2, 450 mg (N=48)): 0 No. (%) | Serious TRAE: Pneumonitis (Phase 2, 450 mg (N=48)): 0 No. (%) | Serious TRAE: Prolonged QT interval (Phase 2, 450 mg (N=48)): 0 No. (%) | Serious TRAE: Pulmonary embolism (Phase 2, 450 mg (N=48)): 1 (2.1) No. (%) | Serious TRAE: Pyrexia (Phase 2, 450 mg (N=48)): 0 No. (%) | Serious TRAE: Rash (Phase 2, 450 mg (N=48)): 2 (4.2) No. (%) | Serious TRAE: Rectal hemorrhage (Phase 2, 450 mg (N=48)): 0 No. (%) | Serious TRAE: Respiratory failure (Phase 2, 450 mg (N=48)): 0 No. (%) | Serious TRAE: Seizure (Phase 2, 450 mg (N=48)): 0 No. (%) | Serious TRAE: Septic shock (Phase 2, 450 mg (N=48)): 0 No. (%) | Serious TRAE: Sudden cardiac arrest (Phase 2, 450 mg (N=48)): 0 No. (%) | Serious TRAE: Sudden death (Phase 2, 450 mg (N=48)): 0 No. (%) | Serious TRAE: Upper respiratory tract infection (Phase 2, 450 mg (N=48)): 0 No. (%) | Serious TRAE: Ventricular tachycardia (Phase 2, 450 mg (N=48)): 0 No. (%) | Serious TRAE: Vomiting (Phase 2, 450 mg (N=48)): 0 No. (%) | Serious TRAE: Weight loss (Phase 2, 450 mg (N=48)): 0 No. (%) | Grade of cardiac TEAE: sinus bradycardia (Phase 2 study, patient 1 with Grade 3 QTc prolongation): 1 | Grade of cardiac TEAE: cronary arteriosclerosis (Phase 2 study, patient 2 with Grade 3 QTc prolongation): 2 | Grade of cardiac TEAE: Supraventricular extrasystoles [1]: 1 | Grade of cardiac TEAE: arhythmia [1]: 1 | Grade of cardiac TEAE: sinus bradycardia [1]: 1 | Grade of cardiac TEAE: ventricular extrasystole [1]: 2 | Grade of cardiac TEAE: Ejection fraction reduced [2]: 2 | Grade of cardiac TEAE: Left ventricular dysfunction [2]: 2 | Grade of cardiac TEAE: Supraventricular extrasystoles [2]: 1 | Grade of cardiac TEAE: Ventricular wall movement diffusky diminshed [2]: 2 | Grade of cardiac TEAE: nodal tachycardia [2]: 1 | Grade of cardiac TEAE: T wave abnormal [3]: 1 | Grade of cardiac TEAE: nodal tachycardia [3]: 1 | Grade of cardiac TEAE: myocardial damage (Phase 2 study, patient 6 with Grade 3 QTc prolongation): 2 | Grade of cardiac TEAE: Supraventricular extrasystoles [4]: 2 | Grade of cardiac TEAE: T wave abnormal [4]: 2 | Grade of cardiac TEAE: U wave abnormal [4]: 2 | Grade of cardiac TEAE: T wave abnormal [5]: 1 | Grade of cardiac TEAE: nodal tachycardia [5]: 1 | Grade of cardiac TEAE: nodal tachycardia (Phase 2 study, patient 9 with Grade 3 QTc prolongation): 1 | grade ≥ 3 TEAE diarrhea (phase 2): 12.5% | grade ≥ 3 TEAE hypertension (phase 2): 18.8% | grade ≥ 3 TEAE prolonged QT interval (phase 2): 31.3% | patients with at least one SAE (phase 2): 39.6% | patients with at least one TRAE (phase 2): 95.8% | patients with grade ≥3 TRAEs (phase 2): 62.5% | patients with treatment-related SAE (phase 2): 18.8% | ≥ grade-3 prolonged QT interval with dose interruption (phase 2): 14.6% | ≥ grade-3 prolonged QT interval with dose reduction (phase 2): 6.3%
